Reference: patent publication US12433903B2 (priority 2021, dated 2025)
Values joined by “and” are separate entries in the source; they are usually repeats but may differ in a detail not shown here. Identical values can stand only once.

Experiment: Quantification of CBG and CBG glucuronide in rat plasma and brain after oral gavage
Assay type: in vivo, Sprague-Dawley rat
Details: for CBG concentration in rat plasma (Day 21) / CBG concentration in rat brain tissue (Day 21) / CBG concentration in rat plasma (Day 1): individual rats; for CBG concentration in rat brain tissue (Day 21) / CBG concentration in rat brain tissue (Day 21), Average: 24 hrs post Rx
Method: The purpose of this study was to quantify cannabigerol (CBG) in rat plasma and brain.
Seven- to nine-week-old male and female Sprague-Dawley received either a single dose or once daily dosing for 21 clays of vehicle or CBG at three different dosage levels as shown in the Table below.
Approximately 0.2-0.25 mL blood was collected during the first 24 hours after the single dose, and at multiple times points after the terminal dose for the animals receiving daily dosing for 21 days. Liver, kidney, and colon samples were collected and fixed in 10% NBF for 48 hours, then stored in 70% ethanol at room temperature. Brain samples were collected and flash frozen.
Analytical curves were constructed using non-zero standards with CBG concentration ranging from 0.0025 to 2.500 μg/mL and […] in blank rat plasma samples and 1.0 to 2500 ng/mL in blank brain tissues. A blank sample was used to exclude contamination.
Instrument Used: AB SCIEX QTRAP 4500/Shimadzu Prominence LC

SMILES: CCCCCc1cc(O)c(C/C=C(\C)CCC=C(C)C)c(O)c1 [CBG, cannabigerol]
- CBG concentration in rat plasma (Day 21) (CBG 10 mg/kg oral gavage once daily, 15 min post Rx): BLQ (Below Limit of Quantification (2.5 ng/mL))
- CBG concentration in rat plasma (Day 21) (CBG 10 mg/kg oral gavage once daily, 30 min post Rx): BLQ (Below Limit of Quantification (2.5 ng/mL))
- CBG concentration in rat plasma (Day 21) (CBG 10 mg/kg oral gavage once daily, 1 hr post Rx): BLQ (Below Limit of Quantification (2.5 ng/mL)) (4×) and 1.67 ng/mL and 2.75 ng/mL
- CBG concentration in rat plasma (Day 21) (CBG 10 mg/kg oral gavage once daily, 2 hr post Rx): BLQ (Below Limit of Quantification (2.5 ng/mL)) (3×) and 5.6 ng/mL and 9.5 ng/mL and 2.72 ng/mL
- CBG concentration in rat plasma (Day 21) (CBG 10 mg/kg oral gavage once daily, 4 hr post Rx): BLQ (Below Limit of Quantification (2.5 ng/mL)) (4×) and 4.73 ng/mL and 8.49 ng/mL
- CBG concentration in rat plasma (Day 21) (CBG 10 mg/kg oral gavage once daily, 8 hr post Rx): BLQ (Below Limit of Quantification (2.5 ng/mL)) (4×) and 2.55 ng/mL and 4.18 ng/mL
- CBG concentration in rat plasma (Day 21) (CBG 10 mg/kg oral gavage once daily, 24 hr post Rx): BLQ (Below Limit of Quantification (2.5 ng/mL))
- CBG concentration in rat brain tissue (Day 21) (CBG 10 mg/kg oral gavage once daily): BLQ (Below Limit of Quantification (1.0 ng/g))
- CBG concentration in rat plasma (Day 1) (CBG 10 mg/kg oral gavage once, 15 min post Rx): BLQ (Below Limit of Quantification (2.5 ng/mL))
- CBG concentration in rat plasma (Day 1) (CBG 10 mg/kg oral gavage once, 30 min post Rx): BLQ (Below Limit of Quantification (2.5 ng/mL))
- CBG concentration in rat plasma (Day 1) (CBG 10 mg/kg oral gavage once, 1 hr post Rx): 5.3 ng/mL and BLQ (Below Limit of Quantification (2.5 ng/mL)) (2×) and 18.6 ng/mL and 7.3 ng/mL
- CBG concentration in rat plasma (Day 1) (CBG 10 mg/kg oral gavage once, 2 hr post Rx): 10.7 ng/mL and BLQ (Below Limit of Quantification (2.5 ng/mL)) and 14.6 ng/mL and 11.5 ng/mL and 12.0 ng/mL
- CBG concentration in rat plasma (Day 1) (CBG 10 mg/kg oral gavage once, 4 hr post Rx): BLQ (Below Limit of Quantification (2.5 ng/mL))
- CBG concentration in rat plasma (Day 1) (CBG 10 mg/kg oral gavage once, 8 hr post Rx): BLQ (Below Limit of Quantification (2.5 ng/mL))
- CBG concentration in rat plasma (Day 1) (CBG 10 mg/kg oral gavage once, 24 hr post Rx): BLQ (Below Limit of Quantification (2.5 ng/mL))
- CBG concentration in rat plasma (Day 21) (CBG 30 mg/kg oral gavage once daily, 15 min post Rx): BLQ (Below Limit of Quantification (2.5 ng/mL)) (3×) and 14.7 ng/mL and 4.51 ng/mL and 9.12 ng/mL
- CBG concentration in rat plasma (Day 21) (CBG 30 mg/kg oral gavage once daily, 30 min post Rx): BLQ (Below Limit of Quantification (2.5 ng/mL))
- CBG concentration in rat plasma (Day 21) (CBG 30 mg/kg oral gavage once daily, 1 hr post Rx): BLQ (Below Limit of Quantification (2.5 ng/mL))
- CBG concentration in rat plasma (Day 21) (CBG 30 mg/kg oral gavage once daily, 2 hr post Rx): BLQ (Below Limit of Quantification (2.5 ng/mL))
- CBG concentration in rat plasma (Day 21) (CBG 30 mg/kg oral gavage once daily, 4 hr post Rx): BLQ (Below Limit of Quantification (2.5 ng/mL))
- CBG concentration in rat plasma (Day 21) (CBG 30 mg/kg oral gavage once daily, 8 hr post Rx): BLQ (Below Limit of Quantification (2.5 ng/mL))
- CBG concentration in rat plasma (Day 21) (CBG 30 mg/kg oral gavage once daily, 24 hr post Rx): BLQ (Below Limit of Quantification (2.5 ng/mL))
- CBG concentration in rat brain tissue (Day 21) (CBG 30 mg/kg oral gavage once daily): BLQ (Below Limit of Quantification (1.0 ng/g)) (5×) and 43.8 ng/g
- CBG concentration in rat plasma (Day 1) (CBG 30 mg/kg oral gavage once, 15 min post Rx): 3.8 ng/mL and 7.6 ng/mL and BLQ (Below Limit of Quantification (2.5 ng/mL)) (4×)
- CBG concentration in rat plasma (Day 1) (CBG 30 mg/kg oral gavage once, 30 min post Rx): 15.2 ng/mL and BLQ (Below Limit of Quantification (2.5 ng/mL)) (5×)
- CBG concentration in rat plasma (Day 1) (CBG 30 mg/kg oral gavage once, 1 hr post Rx): 22.9 ng/mL and 32.3 ng/mL and 32.5 ng/mL and 1.08 ng/mL and 31.2 ng/mL and 35.9 ng/mL
- CBG concentration in rat plasma (Day 1) (CBG 30 mg/kg oral gavage once, 2 hr post Rx): BLQ (Below Limit of Quantification (2.5 ng/mL)) (2×) and 11.0 ng/mL and 26.6 ng/mL and 78.6 ng/mL and 36.0 ng/mL
- CBG concentration in rat plasma (Day 1) (CBG 30 mg/kg oral gavage once, 4 hr post Rx): 24.5 ng/mL and BLQ (Below Limit of Quantification (2.5 ng/mL)) (2×) and 54.3 ng/mL and 62.1 ng/mL and 48.3 ng/mL
- CBG concentration in rat plasma (Day 1) (CBG 30 mg/kg oral gavage once, 8 hr post Rx): BLQ (Below Limit of Quantification (2.5 ng/mL))
- CBG concentration in rat plasma (Day 1) (CBG 30 mg/kg oral gavage once, 24 hr post Rx): BLQ (Below Limit of Quantification (2.5 ng/mL)) (5×) and 2.75 ng/mL
- CBG concentration in rat plasma (Day 21) (CBG 100 mg/kg oral gavage once daily, 15 min post Rx): BLQ (Below Limit of Quantification (2.5 ng/mL)) (4×) and 41.6 ng/mL
- CBG concentration in rat plasma (Day 21) (CBG 100 mg/kg oral gavage once daily, 30 min post Rx): BLQ (Below Limit of Quantification (2.5 ng/mL)) (3×) and 178.5 ng/mL and 122.5 ng/mL
- CBG concentration in rat plasma (Day 21) (CBG 100 mg/kg oral gavage once daily, 1 hr post Rx): BLQ (Below Limit of Quantification (2.5 ng/mL)) (3×) and 225.5 ng/mL and 206.0 ng/mL
- CBG concentration in rat plasma (Day 21) (CBG 100 mg/kg oral gavage once daily, 2 hr post Rx): 307.0 ng/mL and 201.0 ng/mL and 278.0 ng/mL and BLQ (Below Limit of Quantification (2.5 ng/mL)) and 275.5 ng/mL
- CBG concentration in rat plasma (Day 21) (CBG 100 mg/kg oral gavage once daily, 4 hr post Rx): BLQ (Below Limit of Quantification (2.5 ng/mL)) and 171.0 ng/mL and 129.5 ng/mL and 185.0 ng/mL and 905.0 ng/mL and 417.0 ng/mL
- CBG concentration in rat plasma (Day 21) (CBG 100 mg/kg oral gavage once daily, 8 hr post Rx): BLQ (Below Limit of Quantification (2.5 ng/mL)) (2×) and 215.0 ng/mL and 905.0 ng/mL and 3095.0 ng/mL and 373.0 ng/mL
- CBG concentration in rat plasma (Day 21) (CBG 100 mg/kg oral gavage once daily, 24 hr post Rx): BLQ (Below Limit of Quantification (2.5 ng/mL))
- CBG concentration in rat brain tissue (Day 21), Average (CBG 100 mg/kg oral gavage once daily, female rats): 299.27 ng/g
- CBG concentration in rat brain tissue (Day 21) (CBG 100 mg/kg oral gavage once daily): 53.0 ng/g and 108.0 ng/g and 1460.0 ng/g and 271.0 ng/g and 580.0 ng/g and 46.8 ng/g
- CBG concentration in rat brain tissue (Day 21), Average (CBG 100 mg/kg oral gavage once daily, male rats): 540.33 ng/g
- CBG concentration in rat plasma (Day 1) (CBG 100 mg/kg oral gavage once, 15 min post Rx): BLQ (Below Limit of Quantification (2.5 ng/mL))
- CBG concentration in rat plasma (Day 1) (CBG 100 mg/kg oral gavage once, 30 min post Rx): BLQ (Below Limit of Quantification (2.5 ng/mL))
- CBG concentration in rat plasma (Day 1) (CBG 100 mg/kg oral gavage once, 1 hr post Rx): BLQ (Below Limit of Quantification (2.5 ng/mL))
- CBG concentration in rat plasma (Day 1) (CBG 100 mg/kg oral gavage once, 2 hr post Rx): BLQ (Below Limit of Quantification (2.5 ng/mL))
- CBG concentration in rat plasma (Day 1) (CBG 100 mg/kg oral gavage once, 4 hr post Rx): BLQ (Below Limit of Quantification (2.5 ng/mL)) (4×) and 119.0 ng/mL and 143.0 ng/mL
- CBG concentration in rat plasma (Day 1) (CBG 100 mg/kg oral gavage once, 8 hr post Rx): BLQ (Below Limit of Quantification (2.5 ng/mL))
- CBG concentration in rat plasma (Day 1) (CBG 100 mg/kg oral gavage once, 24 hr post Rx): BLQ (Below Limit of Quantification (2.5 ng/mL))
- concentration of CBG in plasma (in words) (oral gavage 10-100 mg/kg, Day 1 and Day 21): low or below the level of quantitation (BLQ)
- CBG in brain (in words) (oral gavage, Day 21): not detected
- first pass metabolism to the glucuronide (in words) (upon oral administration): very high
